pEC50: −log10 of the molar value.
Assays:
[1] = Plasma concentration after low dose SC injection of nanoparticle or free drug; format: in vivo, Mice; conditions: 10 mg/kg SC; for concentration at 0.25 hr / concentration at 1 hr / concentration at 3 hr / concentration at 6 hr / concentration at 10 hr / concentration at 24 hr / concentration at 48 hr / concentration at 96 hr / concentration at 168 hr / concentration at 336 hr: mouse, plasma, subcutaneous
Description: Mice were also administered nanoparticles or free drug at only 10 mg/kg by SC injection.

[2] = cited from earlier work
[3] = test system: a variety of HIV strains and host cell types; conditions: read-out: EC50 levels for anti-HIV activity; cited from earlier work
[4] = cited from earlier work; remark: listed apart in the source
HIVADA = experiment: Antiretroviral activities of RTV (p24 staining, RT activity) in HIVADA infected MDM; format: cell-based, HIV-1; conditions: 12 hours treatment, HIV challenge day 1, read 10 days after infection
Description: Drug-treated MDMs were infected with HIVADA at a multiplicity of infection of 0.01 infectious viral particles/cell (Gendelman et al. (1988) J. Exp. Med., 167:1428-1441) on day 1 after RTV-NP treatment. Following viral infection, cells were cultured for 10 days with half media exchanges every other day. Media samples were collected 10 days after infection for measurement of progeny virion production as assayed by reverse transcriptase (RT) activity (Kalter et al. (1991) J. Immunol., 146:3396-3404). Parallel analyses for expression of HIV p24 antigen in infected cells were performed by immunostaining using p24 mouse monoclonal Ab (Dako [CA, USA]) on the same day as media sampling.
In a 96-well plate, media samples (10 μl) were mixed with 10 μl of a solution containing 100 mM Tris-HCl (pH 7.9), 300 mM KCl, 10 mM dithiothreitol, 0.1% nonyl phenoxylpolyethoxylethanol-40 (NP-40) and water. […] Following incubation, 50 μl of cold 10% TCA was added to each well; the wells were harvested onto glass fiber filters, and the filters were assessed for tritiated thymidine triphosphate incorporation by β-scintillation spectroscopy using a TopCount NX™ (PerkinElmer Inc. [MA, USA]) (Kalter et al. (1991) J. Immunol., 146:3396-3404). […]

## COC(=O)N[C@H](C(=O)N[C@@H](Cc1ccccc1)[C@@H](O)CN(Cc1ccc(-c2ccccn2)cc1)NC(=O)[C@@H](NC(=O)OC)C(C)(C)C)C(C)(C)C [ATV, atazanavir]
[1]
  concentration at 0.25 hr: 1150 ng/mL
  concentration at 1 hr: 804 ng/mL
  concentration at 3 hr: 2060 ng/mL
  concentration at 6 hr: 2100 ng/mL
  concentration at 10 hr: 639 ng/mL
  concentration at 24 hr: 9.85 ng/mL
  concentration at 48 hr: 4.38 ng/mL
  concentration at 96 hr: 4.3 ng/mL
  concentration at 168 hr: 1.74 ng/mL
[1]; 336 hr
  concentration at 336 hr: 0 ng/mL
[2]
  solubility of free-base drug: 4000 to 5000 µg/mL
[3]
  pEC50: 8.30 to 8.70
[4]
  therapeutic human plasma levels: 0.3 to 2.2 µg/mL
[4]; human serum
  minimum human therapeutic serum level: 150 ng/mL

## O=C1Nc2ccc(Cl)cc2[C@@](C#CC2CC2)(C(F)(F)F)O1 [EFV, efavirenz]
[1]; 336 hr
  Plasma concentration, 336 hr: <LLOQ
[1]
  concentration at 0.25 hr: 301 ng/mL
  concentration at 1 hr: 124 ng/mL
  concentration at 3 hr: 155 ng/mL
  concentration at 6 hr: 213 ng/mL
  concentration at 10 hr: 40 ng/mL
  concentration at 24 hr: 7.1 ng/mL
  concentration at 48 hr: 2.17 ng/mL
  concentration at 96 hr: 2.99 ng/mL
  concentration at 168 hr: 2.57 ng/mL
[2]
  solubility of free-base drug: 9 µg/mL
[3]
  pEC50: 7.60 to 8.77
[4]
  therapeutic human plasma levels: 1.8 to 4.1 µg/mL

## CC(C)(C)NC(=O)[C@@H]1CN(Cc2cccnc2)CCN1C[C@@H](O)C[C@@H](Cc1ccccc1)C(=O)N[C@H]1c2ccccc2C[C@H]1O [IDV, indinavir]
[3]
  pEC50: 7.54 to 8.30

## CC(C)c1nc(CN(C)C(=O)N[C@H](C(=O)N[C@@H](Cc2ccccc2)C[C@H](O)[C@H](Cc2ccccc2)NC(=O)OCc2cncs2)C(C)C)cs1 [RTV, ritonavir]
HIVADA
  protection against HIV infection (p24 staining, multinucleated giant cells): no protection against infection
[1]
  concentration at 0.25 hr: 1080 ng/mL
  concentration at 1 hr: 492 ng/mL
  concentration at 3 hr: 710 ng/mL
  concentration at 6 hr: 551 ng/mL
  concentration at 10 hr: 69.1 ng/mL
  concentration at 24 hr: 5.91 ng/mL
  concentration at 48 hr: 2.36 ng/mL
  concentration at 96 hr: 4.94 ng/mL
  concentration at 168 hr: 2.21 ng/mL
[1]; 336 hr
  concentration at 336 hr: 0 ng/mL
[3]
  pEC50: 6.70 to 7.46
[4]
  therapeutic human plasma levels: 3.5 to 9.6 µg/mL
